In patent US20190358264A1, “METHODS OF TREATING DISEASES ASSOCIATED WITH ILC2 CELLS” (Limm Therapeutics, SA, priority 2016, published 2019):

Tested on: ILC2s
Experiment: In vitro activation of purified ILC2s, type 2 cytokine protein by intracellular staining
Type: cell-based, mouse
Experimental: FIGS. 10a-10d: FIG. 10a, Ki67 expression in intestinal ILC2s after an overnight in vitro stimulation with NmU23 alone (100 ng/mL, Phoenix Pharmaceutical) or NmU23 together with the survival cytokines Interleukin (IL)-2 and/or IL-7 (10 ng/mL). FIG. 10b, Ki67 expression in intestine ILC2 after in vivo administration of NmU23 (4 g/day during 2 days). n=5. FIG. 10c, ILC2-derived type 2 cytokines (IL-5, IL-13 and Amphiregulin (Areg)) in sorted intestine ILC2 after an overnight stimulation with NmU23, mouse recombinant IL-25 or IL-33 (R&D) (10, 50 and 100 ng/mL). Negative control: unstimulated ILC2, Positive control: ILC2 activated with phorbol 12-myristate 13-acetate (PMA, 50 ng/ml) plus ionomycin (500 ng/ml). n=3. FIG. 10d, Dot plots representative of the cytokine production with increasing dose of NmU23, rIL-25 and rIL-33. *P<0.05; **P<0.01; ***P<0.001; ****P<0.0001; ns not significant.
For in vitro experiments, purified lung and small intestine lamina propria ILC2s were FBS starved for 2 hours prior to stimulation and cultured in complete RPMI (supplemented with 10% foetal bovine serum (FBS), 1% hepes, sodium pyruvate, glutamine, streptomycin and penicillin) at 37° C. For mRNA analysis, ILC2s were stimulated overnight with recombinant mouse Neuromedin U 23 peptide (NmU23, 100 ng/mL; Phoenix pharmaceuticals). Both NmU23-stimulated and control ILC2s were cultured in the presence of IL-2 and IL-7 (10 ng/mL; Peprotech). ILC2s were lysed using RLT buffer (Qiagen). For cytokine protein analysis, ILC2s were incubated exclusively with brefeldin A (eBioscience) for 12 hours prior to intracellular staining. For in vivo experiments, B6 mice were injected intraperitoneal with NmU23 peptide (2 g/day) during Nippostrongylus brasiliensis infection or with a single dose of NmU23 (20 μg) and analyzed after 8 hours. Control mice were treated with PBS alone.
Intracellular staining was performed using IC fixation/permeabilization kit (eBioscience). Flow cytometry analysis and cell sorting were performed using BD LSRFORTESSA and BD FACSAria flow cytometers (BD Biosciences). […]

“Neuromedin U (FKAEYQSPSVGQSKGYFLFRPRN) [NmU]” was tested, and the “up-regulation of innate type 2 cytokines relative to PMA-ionomycin positive control” value (PMA 50 ng/ml plus ionomycin 500 ng/ml, sorted intestine ILC2, overnight) was “comparable to the effects observed with PMA-ionomycin activation” and the “expression of innate IL-5 and IL-13 compared to IL-33 and IL-25” value (sorted intestine ILC2, overnight, 10, 50 and 100 ng/mL (FIGS. 10c,10d)) was “prompt, and very robust expression”.
